Assay results published in patent US10973821B2, “Pharmaceutical formulation” (priority 2016, dated 2021).

What was measured:
[1] = system: A. terreus 49; conditions: cited from earlier work
[2] = system: S. prolifican 4883; conditions: cited from earlier work
[3] = system: S. prolifican 7935; conditions: cited from earlier work
[4] = system: S. prolifican 451; conditions: cited from earlier work
[5] = system: S. prolificans 18389; conditions: cited from earlier work
[6] = system: S. apiospermum 15848; conditions: cited from earlier work
[7] = system: S. prolificans 206; conditions: cited from earlier work
[8] = system: A. flavus; conditions: cited from earlier work
[9] = system: S. aurantiacum; conditions: cited from earlier work
[10] = system: S. apiospermum 8353; conditions: cited from earlier work
[11] = system: S. prolifican 8353; conditions: cited from earlier work
[12] = system: S. apiospermum 451; conditions: cited from earlier work
[13] = system: S. prolifican 15848; conditions: cited from earlier work
[14] = system: S. apiospermum 1124; conditions: cited from earlier work
[15] = in vivo PK studies in rats (single dose IV and p.o.); conditions: rat, 10 mg/kg
Procedure: Various formulations were investigated in in vivo PK studies in rats to determine the optimal oral formulation for dosing to animals and humans.
The compound of Formula I was administered to rats by IV at a dosage of 10 mg/kg. The vehicle comprised 15% hydroxypropyl beta cyclodextrin (Kelptose HPB parenteral grade), 5% DMSO and water for injection. The formulation was filtered using a ≤0.22 μm polyethersulfone (PES) membrane filter prior to use. The dose volume administered was 5 mL/kg. 0.2 mL blood samples from the sublingal vein under isoflurane anaesthesia were obtained 5 minutes after IV administration and stored in EDTA. Plasma was separated by centrifugation (1500×g, 10 mins, ca. 4° C.) and was frozen at −70° C. prior to analysis. Analysis to calculate plasma concentration of the compound of Formula I was conducted by LC-MS/MS. […] The AUCIV value was subsequently used to calculate the bioavailability of example oral formulations as described above.
A crystalline sample of the compound of Formula I was formulated in PEG300. The formulation was dosed p.o. (gavage) to rats at 10 mg/kg (dose volume=5 mL/kg). 0.2 mL blood samples from the sublingal vein under isoflurane anaesthesia were obtained 15 minutes after oral administration and stored in EDTA. Samples were then taken 0.5, 1, 2, 4, 8, 12 and 24 hours post-dose.

[16] = system: S. apiospermum 13486; conditions: cited from earlier work
[17] = system: S. dehoogii; conditions: cited from earlier work
[18] = system: Lomentospora prolificans FMR 3569; conditions: mice infected with Lomentospora prolificans FMR 3569; relative to voriconazole; orally by gavage; cited from earlier work
[19] = system: invasive aspergillosis; conditions: mouse; orally by gavage; not the formulations of the present invention; cited from earlier work
[20] = in vivo PK studies in cynomolgus monkeys (single dose IV and p.o.); conditions: both sexes, cynomolgus monkey, 10 mg/kg
Procedure: Various formulations were investigated in in vivo PK studies in cynomolgus monkeys to determine the optimal oral formulation for dosing to animals and humans.
The compound of Formula I was administered to male and female cynomolgus monkeys by IV at a dosage of 10 mg/kg. The IV formulation was as described in Example 3. […] The AUCIV value was subsequently used to calculate the bioavailability of example oral formulations as described above.
Studies were conducted using Formulation 2 as described above. The compound of Formula I was administered p.o. to male and female cynomolgus monkeys at a dose level of 10 mg/kg. (dose volume 5 mL/kg). 2 mL blood samples were obtained 5 minutes via femoral puncture (vein/artery) into commercially available K2EDTA tubes using 23G needles coupled to a suitable syringe. Samples were taken 0.25, 0.5, 1, 2, 4, 8, 12 and 24 hours after administration of the formulation. Blood samples were kept on ice until centrifugation at 1600×g (10 mins, ca. 5° C.) to separate plasma. Analysis to calculate plasma concentration of the compound of Formula I was conducted by LC-MS/MS.
Studies were conducted using Formulation 5 as described in Example 3. […]

[21] = system: S. boydii; conditions: cited from earlier work
[22] = system: S. apiospermum 4883; conditions: cited from earlier work
[23] = system: A. fumigatus; conditions: A. fumigatus infected mice; orally by gavage; cited from earlier work
[24] = system: A. fumigatus 210; conditions: cited from earlier work
[25] = system: S. prolificans 6322; conditions: cited from earlier work
[26] = system: A. terreus; conditions: cited from earlier work
[27] = system: S. prolifican 15849; conditions: cited from earlier work
[28] = system: A. niger; conditions: cited from earlier work
[29] = system: S. prolifican 1121; conditions: cited from earlier work
[30] = system: S. apiospermum 7935; conditions: cited from earlier work
[31] = system: S. prolifican 13486; conditions: cited from earlier work
[32] = system: A. fumigatus; conditions: cited from earlier work
[33] = system: S. prolifican 201; conditions: cited from earlier work

Cc1cc(-c2ccccc2)c(C(=O)C(=O)Nc2ccc(N3CCN(c4ncc(F)cn4)CC3)cc2)n1C [compound of Formula I, 2-(1,5-dimethyl-3-phenyl-1H-pyrrol-2-yl)-N-(4-(4-(5-fluoropyrimidin-2-yl)piperazin-1-yl)phenyl)-2-oxoacetamide]
MIC band (RPMI medium) [1]: A (MIC ≤ 0.005) | MIC band (RPMI medium) [2]: C (0.01 < MIC ≤ 0.02) | MIC band (RPMI medium) [3]: C (0.01 < MIC ≤ 0.02) | MIC band (RPMI medium) [4]: B (0.005 < MIC ≤ 0.01) | MIC band (RPMI medium) [5]: C (0.01 < MIC ≤ 0.02) | MIC band (RPMI medium) [6]: D (0.02 < MIC ≤ 0.04) | MIC band (RPMI medium) [7]: D (0.02 < MIC ≤ 0.04) | MIC band (RPMI medium) [8]: B (0.005 < MIC ≤ 0.01) | antifungal activity [9]: good antifungal activity | MIC band (RPMI medium) [10]: B (0.005 < MIC ≤ 0.01) | MIC band (RPMI medium) [11]: B (0.005 < MIC ≤ 0.01) | MIC band (RPMI medium) [12]: B (0.005 < MIC ≤ 0.01) | MIC band (RPMI medium) [13]: D (0.02 < MIC ≤ 0.04) | MIC band (RPMI medium) [14]: A (MIC ≤ 0.005) | AUC [15]: 13500 ng·h/mL | MIC band (RPMI medium) [16]: D (0.02 < MIC ≤ 0.04) | antifungal activity [17]: good antifungal activity | survival [18]: increase survival | efficacy in murine models of invasive aspergillosis [19]: excellent efficacy | AUC [20]: 18000 ng·h/mL | antifungal activity [21]: good antifungal activity | MIC band (RPMI medium) [22]: C (0.01 < MIC ≤ 0.02) | galactomannan indices [23]: reduce galactomannan indices | MIC band (RPMI medium) [24]: C (0.01 < MIC ≤ 0.02) | MIC band (RPMI medium) [25]: D (0.02 < MIC ≤ 0.04) | MIC band (RPMI medium) [26]: A (MIC ≤ 0.005) | MIC band (RPMI medium) [27]: E (0.04 < MIC ≤ 0.06) | MIC band (RPMI medium) [28]: C (0.01 < MIC ≤ 0.02) | MIC band (RPMI medium) [29]: A (MIC ≤ 0.005) | MIC band (RPMI medium) [30]: C (0.01 < MIC ≤ 0.02) | MIC band (RPMI medium) [31]: D (0.02 < MIC ≤ 0.04) | MIC band (RPMI medium) [32]: C (0.01 < MIC ≤ 0.02) | MIC band (RPMI medium) [33]: D (0.02 < MIC ≤ 0.04)
